Drawing on US8173638B2 (Boehringer Ingelheim International GmbH, priority 2006, dated 2012), this text covers agonistic activity for 26 compounds.

The structures appear in SMILES notation.

T1 sequence (P34972 whole entry): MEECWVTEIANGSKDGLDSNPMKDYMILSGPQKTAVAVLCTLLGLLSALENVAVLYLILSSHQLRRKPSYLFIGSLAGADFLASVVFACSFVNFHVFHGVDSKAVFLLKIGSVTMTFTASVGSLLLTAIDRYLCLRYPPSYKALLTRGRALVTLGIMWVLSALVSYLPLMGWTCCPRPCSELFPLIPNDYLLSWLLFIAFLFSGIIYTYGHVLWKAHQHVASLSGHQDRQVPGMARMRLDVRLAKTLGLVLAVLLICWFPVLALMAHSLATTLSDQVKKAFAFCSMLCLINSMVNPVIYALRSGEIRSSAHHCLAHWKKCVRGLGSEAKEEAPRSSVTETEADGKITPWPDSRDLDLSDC

This test addresses T1, human CB2R (Homo sapiens, UniProt P34972).
T1 construct: host or cells: CHO cells
In words: CB2R mediated modulation of cAMP synthesis. To be noted: found through the use of the described assays (CB2 agonists); qualitative statement. In kind it is cell-based. In a few lines: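 Forskolin (10 uM)-driven cAMP in human CB2R-expressing CHO cells, read with DiscoverX-XS kit after 30 min compound exposure at 37 °C, 1 mM IBMX, 0.25% BSA. 100% defined as forskolin cAMP relative to 1 uM CP55940 inhibition. Agonist EC50 via four-parameter logistic model.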
In the case of `Cc1nc(NC(=O)N2CCCN(C(=O)C3CCC(F)(F)CC3)CC2)sc1C(C)(C)C` [4-(4,4-Difluoro-cyclohexanecarbonyl)-[1,4]diazepane-1-carboxylic acid (5-tert-butyl-4-methyl-thiazol-2-yl)-amide], the agonistic activity entry is reported as “agonistic activity”.
The same measure for `CC(C)(C)c1cc(NC(=O)N2CCCN(C(=O)C3CCC(F)(F)CC3)CC2)no1` [4-(4,4-Difluoro-cyclohexanecarbonyl)-[1,4]diazepane-1-carboxylic acid (5-tert-butyl-isoxazol-3-yl)-amide]: “agonistic activity”.
`CC(C)(C)c1cc(NC(=O)N2CCCN(C(=O)N3CCC(F)(F)CC3)CC2)no1` [4-(4,4-Difluoro-piperidine-1-carbonyl)-[1,4]diazepane-1-carboxylic acid (5-tert-butyl-isoxazol-3-yl)-amide]: the agonistic activity entry is “agonistic activity”.
Consider `CC(=O)N1CCN(C(=O)N2CCCN(C(=O)Nc3cc(C(C)(C)C)on3)CC2)CC1` [4-(4-Acetyl-piperazine-1-carbonyl)-[1,4]diazepane-1-carboxylic acid (5-tert-butyl-isoxazol-3-yl)-amide], for which the agonistic activity entry is recorded as “agonistic activity”.
With `CC(=O)NC1CCC(C(=O)N2CCCN(C(=O)Nc3cc(C(C)(C)C)on3)CC2)CC1` (centres unmarked) [4-(4-Acetylamino-cyclohexanecarbonyl)-[1,4]diazepane-1-carboxylic acid (5-tert-butyl-isoxazol-3-yl)-amide] the entry was “agonistic activity”; with `CC(C)(C)c1cc(NC(=O)N2CCCN(C(=O)C3CCC(N)CC3)CC2)no1` (centres unmarked) [4-(4-Amino-cyclohexanecarbonyl)-[1,4]diazepane-1-carboxylic acid (5-tert-butyl-isoxazol-3-yl)-amide], “agonistic activity”; with `O=C(Nc1ccc(Cl)c(Cl)c1)N1CCCN(C(=O)c2ccc(Cl)cc2)CC1` [4-(4-Chloro-benzoyl)-[1,4]diazepane-1-carboxylic acid (3,4-dichloro-phenyl)-amide], “agonistic activity”.
With `O=C(Nc1cc(Cl)cc(Cl)c1)N1CCCN(C(=O)c2ccc(Cl)cc2)CC1` [4-(4-Chloro-benzoyl)-[1,4]diazepane-1-carboxylic acid (3,5-dichloro-phenyl)-amide] the entry was “agonistic activity”; with `O=C(Nc1nc2c(s1)CCCC2)N1CCCN(C(=O)c2ccc(Cl)cc2)CC1` [4-(4-Chloro-benzoyl)-[1,4]diazepane-1-carboxylic acid (4,5,6,7-tetrahydro-benzothiazol-2-yl)-amide], “agonistic activity”; with `O=C(Nc1nc(C2CC2)cs1)N1CCCN(C(=O)c2ccc(Cl)cc2)CC1` [4-(4-Chloro-benzoyl)-[1,4]diazepane-1-carboxylic acid (4-cyclopropyl-thiazol-2-yl)-amide], “agonistic activity”.
The same measure for `CC(C)c1ccc(NC(=O)N2CCCN(C(=O)c3ccc(Cl)cc3)CC2)cc1` [4-(4-Chloro-benzoyl)-[1,4]diazepane-1-carboxylic acid (4-isopropyl-phenyl)-amide]: “agonistic activity”.
With `O=C(Nc1nc(-c2ccccc2)cs1)N1CCCN(C(=O)c2ccc(Cl)cc2)CC1` [4-(4-Chloro-benzoyl)-[1,4]diazepane-1-carboxylic acid (4-phenyl-thiazol-2-yl)-amide], the agonistic activity entry is recorded as “agonistic activity”.
The same measure for `O=C(Nc1ccc(C(F)(F)F)cc1)N1CCCN(C(=O)c2ccc(Cl)cc2)CC1` [4-(4-Chloro-benzoyl)-[1,4]diazepane-1-carboxylic acid (4-trifluoromethyl-phenyl)-amide]: “agonistic activity”.
For `CC(C)(C)c1cc(NC(=O)N2CCCN(C(=O)c3ccc(Cl)cc3)CC2)no1` [4-(4-Chloro-benzoyl)-[1,4]diazepane-1-carboxylic acid (5-tert-butyl-isoxazol-3-yl)-amide], the agonistic activity entry is reported as “agonistic activity”.
On to `O=C(Nc1ccc2ccccc2c1)N1CCCN(C(=O)c2ccc(Cl)cc2)CC1` [4-(4-Chloro-benzoyl)-[1,4]diazepane-1-carboxylic acid naphthalen-2-ylamide], for which the agonistic activity entry is “agonistic activity”.
Regarding `CC(C)(C)c1ccc(NC(=O)N2CCCN(C(=O)c3ccc(C#N)cc3)CC2)cc1` [4-(4-Cyano-benzoyl)-[1,4]diazepane-1-carboxylic acid (4-tert-butyl-phenyl)-amide], the agonistic activity entry is reported as “agonistic activity”.
Turning to `N#Cc1ccc(C(=O)N2CCCN(C(=O)Nc3ccc4ccccc4c3)CC2)cc1` [4-(4-Cyano-benzoyl)-[1,4]diazepane-1-carboxylic acid naphthalen-2-ylamide], the agonistic activity entry is reported as “agonistic activity”.
Regarding `CN(C)c1ccc(C(=O)N2CCCN(C(=O)Nc3ccc4ccccc4c3)CC2)cc1` [4-(4-Dimethylamino-benzoyl)-[1,4]diazepane-1-carboxylic acid naphthalen-2-ylamide], the agonistic activity entry was “agonistic activity”.
For `O=C(Nc1ccc(C(F)(F)F)cc1)N1CCCN(C(=O)c2ccc(F)cc2)CC1` [4-(4-Fluoro-benzoyl)-[1,4]diazepane-1-carboxylic acid (4-trifluoromethyl-phenyl)-amide], the agonistic activity entry is “agonistic activity”.
With `CC1(O)CCC(C(=O)N2CCCN(C(=O)Nc3cc(C(C)(C)C)on3)CC2)CC1` (centres unmarked) [4-(4-Hydroxy-4-methyl-cyclohexanecarbonyl)-[1,4]diazepane-1-carboxylic acid (5-tert-butyl-isoxazol-3-yl)-amide] the entry was “agonistic activity”.
With `O=C(Nc1nc(-c2ccccc2)cs1)N1CCCN(C(=O)C2CCC(O)CC2)CC1` (centres unmarked) [4-(4-Hydroxy-cyclohexanecarbonyl)-[1,4]diazepane-1-carboxylic acid (4-phenyl-thiazol-2-yl)-amide] the entry was “agonistic activity”.
With `CC(C)(C)c1cnc(NC(=O)N2CCCN(C(=O)C3CCC(O)CC3)CC2)s1` (centres unmarked) [4-(4-Hydroxy-cyclohexanecarbonyl)-[1,4]diazepane-1-carboxylic acid (5-tert-butyl-thiazol-2-yl)-amide] the entry was “agonistic activity”; with `CC(C)(C)c1cc(NC(=O)N2CCCN(C(=O)N3CCN(S(C)(=O)=O)CC3)CC2)no1` [4-(4-Methanesulfonyl-piperazine-1-carbonyl)-[1,4]diazepane-1-carboxylic acid (5-tert-butyl-isoxazol-3-yl)-amide], “agonistic activity”; with `CC(C)(C)c1cc(NC(=O)N2CCCN(C(=O)N3CCC(S(C)(=O)=O)CC3)CC2)no1` [4-(4-Methanesulfonyl-piperidine-1-carbonyl)-[1,4]diazepane-1-carboxylic acid (5-tert-butyl-isoxazol-3-yl)-amide], “agonistic activity”.
As to `CC(C)(C)c1cc(NC(=O)N2CCCN(C(=O)C3CCC(NS(C)(=O)=O)CC3)CC2)no1` (centres unmarked) [4-(4-Methanesulfonylamino-cyclohexanecarbonyl)-[1,4]diazepane-1-carboxylic acid (5-tert-butyl-isoxazol-3-yl)-amide], the agonistic activity result is listed as “agonistic activity”.
The same measure for `COc1ccc(C(=O)N2CCCN(C(=O)Nc3ccc4ccccc4c3)CC2)cc1` [4-(4-Methoxy-benzoyl)-[1,4]diazepane-1-carboxylic acid naphthalen-2-ylamide]: “agonistic activity”.
